Data on 43 molecules can be found in patent publication US11286268B1, “EIF4E-inhibiting compounds and methods” (EFFECTOR THERAPEUTICS, INC., priority 2019, dated 2022).

Read-outs that look alike come from different tables or passages of the source.

This assay has as its target recombinant eIF4E (Homo sapiens (Human), UniProt P06730). Kind of assay: Fluorescence polarization competition assay for eIF4E binding potency. How it is done:
Compounds were screened for eIF4E binding potency using a fluorescence polarization competition assay. All binding reactions were performed in fluorescence polarization buffer (FPB) containing 20 mM Tris pH 7.5, 100 mM NaCl, 1 mM DTT, and 0.02% Tween-20. Final binding reactions contained 75 nM recombinant eIF4E (Beryllium, custom order), 20 nM EDA-m^7GDP-ATTO-550 (Jena Bioscience, NU-827-550) and varying concentrations of the inhibitory compound of interest. Final DMSO concentration in each reaction was 1%.
eIF4E protein was pre-incubated with EDA-m^7GDP-ATTO-550 in FPB at 2× concentrations for 5 minutes prior to the addition of compounds. Compounds (100×) were prepared using 3-fold serial dilutions in 100% DMSO, and subsequently diluted 1:50 in FPB to produce 2× stocks. 50 μl of 2× eIF4E/EDA-m^7GDP-ATTO-550 were transferred to the wells of a 96-well half-area black flat bottom polystyrene plate. 50 μl of 2× test compound were added, and binding reactions were allowed to equilibrate for 30 minutes at room temperature while protected from light. The fluorescent polarization signal was detected using a Victor 2 multi-label counter (Perkin Elmer) and the concentration necessary to achieve inhibition of eIF4E/EDA-m^7GDP-ATTO-550 binding by 50% (IC50) was calculated using data from an 8-point compound dilution series.
In Table 4A, IC50 values of less than 0.05 μM are labelled as “+++”, from 1 to 0.05 μM are labelled as “++”, and greater than 1 μM are labelled as “+”. ND=not determined.

Where [1] appears, read: fluorescence polarization competition, 75 nM recombinant eIF4E, 20 nM EDA-m7GDP-ATTO-550, IC50 class, read-out: elF4E FP.
The mark [2] stands for this setting: inhibition of eIF4E/EDA-m7GDP-ATTO-550 binding, calculated IC50 values, Table 4B, read-out: IC50.
[3] abbreviates: inhibition of eIF4E/EDA-m7GDP-ATTO-550 binding by 50%, Table 4B calculated values, read-out: IC50.

Sequence of recombinant eIF4E (P06730 whole entry): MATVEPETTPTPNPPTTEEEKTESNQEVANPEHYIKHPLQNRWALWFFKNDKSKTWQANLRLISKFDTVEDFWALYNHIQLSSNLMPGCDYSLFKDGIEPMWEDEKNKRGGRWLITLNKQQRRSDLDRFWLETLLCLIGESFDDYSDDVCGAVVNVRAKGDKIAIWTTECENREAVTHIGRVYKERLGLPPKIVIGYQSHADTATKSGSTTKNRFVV

As for `Cc1nc2cc(C(F)(F)F)c(N3CCN(C)CC3)c(C#N)c2c(=O)n1CCOc1ccc(Cl)cc1-c1ccnc2cc(C#N)sc12` [compound 1245], the IC50 under setting [1] is under 50 nM and the IC50 under setting [2] is 15.6 nM.

Turning to `Cc1cc(-c2cc(Cl)ccc2OCCn2c(C)nc3cc(C(F)(F)F)c(N4CCN(CC(F)F)CC4)c(C#N)c3c2=O)c2scc(C(=O)O)c2n1` [compound 428], the IC50 was under 50 nM under setting [1] and 7.45 nM under setting [3].

For the molecule `Cc1cc(-c2cc(Cl)ccc2OCCn2c(C)nc3cnc(N4CCN(C)CC4)c(C#N)c3c2=O)c2sccc2n1` [compound 1089], the IC50 under setting [1] was 50 to 1000 nM and the IC50 under setting [3] was 618 nM.

Consider `Cc1cc(-c2cc(Cl)ccc2OCCn2c(C)nc3cc(C(F)(F)F)ccc3c2=O)c2scc(C(=O)O)c2n1` [351b], for which, under setting [3], the IC50 was 93.6 nM.

Consider `Cc1nc2c(C3CCN(CC(F)(F)F)CC3)ncc(C#N)c2c(=O)n1CCOc1ccc(Cl)cc1-c1ccnc2c(C(=O)O)csc12` [compound 1115], for which the IC50 is, setting by setting: under setting [1], under 50 nM; under setting [3], 6.77 nM.

Take `Cc1nc2cc(C(F)(F)F)cc(C#N)c2c(=O)n1C/C=C/c1ccc(Cl)cc1-c1cccc(C(=O)O)c1` [compound 145]: the IC50 by setting is: under setting [1], 50 to 1000 nM; under setting [3], 95.9 nM.

For the molecule `CCc1cc(-c2cc(Cl)ccc2OCCn2c(C)nc3cc(C(F)(F)F)c(CC4CCNCC4)c(C#N)c3c2=O)c2scc(C(=O)O)c2n1` [compound 1276], the IC50 under setting [2] is 13.5 nM.

Regarding `Cc1nc2cnc(C3(C)CCN(C)CC3)c(C#N)c2c(=O)n1CCOc1ccc(Cl)cc1-c1ccnc2c(C(=O)O)csc12` [compound 1415], under setting [2], the IC50 is 16.8 nM.

`Cc1nc2cnc(N3CC[N+](CCO)(C(F)F)CC3)c(C#N)c2c(=O)n1CC#Cc1ccc(Cl)cc1-c1ccnc2c(C(=O)O)csc12` [compound 1644]: the IC50 under setting [2] was 14.5 nM.

For the molecule `CCN(c1ncc2nc(C)n(CC#Cc3ccc(Cl)cc3-c3ccnc4c(C(=O)NS(=O)(=O)CC(F)(F)F)csc34)c(=O)c2c1C#N)C1CCN(C2COC2)CC1` [compound 1734], the IC50 under setting [2] is 19.4 nM.

With `Cc1nc2cnc(N(C)CC3CN(CC(F)F)C3)c(C#N)c2c(=O)n1CC#Cc1ccc(Cl)cc1-c1ccnc2c(C(=O)O)csc12` [compound 1542], the IC50 under setting [2] was 18.6 nM.

With `Cc1nc2cnc(N(C)C3CCN(C4CC(F)(F)C4)CC3)c(C#N)c2c(=O)n1CC#Cc1ccc(Cl)cc1-c1ccnc2c(C(=O)NS(=O)(=O)CC#N)csc12` [compound 1825], the IC50 under setting [2] is 17.1 nM.

Regarding `Cc1nc2cnc(N3CCN(CC4CC4)CC3)c(C#N)c2c(=O)n1CC#Cc1ccc(Cl)cc1-c1ccnc2c(C(=O)O)csc12` [compound 895], the IC50 reads like this: under setting [1], under 50 nM; under setting [3], 22.9 nM.

Consider `N#Cc1cc2c(=O)n(CCOc3ccc(O)cc3-c3cccc(C(=O)O)c3)cnc2cn1` [compound 125], for which the IC50 is over 1000 nM under setting [1] and over 3000 nM under setting [3].

As for `Cc1nc2cnc(N(C)C3CCN(CC(F)F)CC3)c(C#N)c2c(=O)n1CC#Cc1ccc(Cl)cc1-c1ccnc2c(C(=O)NO)csc12` [compound 1560], under setting [2], the IC50 was 6.31 nM.

With `Cc1cc(-c2cc(Cl)ccc2OCCn2c(C)nc3cnc(OC(F)F)c(C#N)c3c2=O)c2scc(C(=O)O)c2n1` [compound 602], the IC50 is under 50 nM under setting [1] and 10.2 nM under setting [3].

`N#Cc1c(F)cc(CCOc2ccc(Cl)cc2-c2cccc(C(=O)O)c2)c2c(=O)[nH]c(Nc3ccccc3)nc12` [compound 174]: the IC50 reads like this: under setting [1], 50 to 1000 nM; under setting [3], 52.1 nM.

Regarding `Cc1nc2cc(C(F)(F)F)cc(C#N)c2c(=O)n1CCOc1ccc(Cl)cc1-c1csc2c(C(=O)O)cccc12` [compound 301], the IC50 by setting is: under setting [1], 50 to 1000 nM; under setting [3], 57.6 nM.

Regarding `Cc1cc(-c2cc(Cl)ccc2OCCn2c(C)nc3c(C(F)(F)F)cc(N4CCN(C)CC4)nc3c2=O)c2scc(C(=O)O)c2n1` [compound 677], the IC50 under setting [1] was under 50 nM and the IC50 under setting [3] was 5.44 nM.

Regarding `Cc1nc2cc(CCN(C)C)cc(C#N)c2c(=O)n1CCOc1ccc(Cl)cc1-c1ccnc2c(C(=O)O)csc12` [compound 513], the IC50 by setting is: under setting [1], under 50 nM; under setting [3], 11.6 nM.

As to `Cc1nc2cnc(N(C)C3CCN(C4CC(F)(F)C4)CC3)c(C#N)c2c(=O)n1CC#Cc1ccc(Cl)cc1-c1ccnc2c(C(=O)NS(=O)(=O)C3CCC3)csc12` [compound 1810], the IC50 under setting [2] is 12.9 nM.

In the case of `Cc1nc2cnc(N3CCN(C(C)CF)CC3)c(C#N)c2c(=O)n1CCOc1ccc(Cl)cc1-c1ccnc2c(C(=O)O)csc12` (stereo not drawn) [compound 1424], the IC50 under setting [2] is 29.2 nM.

In the case of `N#Cc1cc(C(F)(F)F)cc2c(Cl)c(Cl)n(CCOc3ccc(Cl)cc3-c3ccnc4c(C(=O)O)csc34)c(=O)c12` [compound 46], the IC50 under setting [1] fell in the range of 50 to 1000 nM and the IC50 under setting [3] was 67.2 nM.

For `Cc1nc2cnc(N3CCN(C)C4CC43)c(C#N)c2c(=O)n1CCOc1ccc(Cl)cc1-c1ccnc2c(C(=O)O)csc12` (stereo not drawn) [compound 1301], the IC50 under setting [2] is 15.5 nM.

For the molecule `Cc1nc2c(C#N)cc(C(F)F)c(C#N)c2c(=O)n1CCOc1ccc(Cl)cc1-c1ccnc2c(C(=O)O)csc12` [compound 197], the IC50 was 50 to 1000 nM under setting [1] and 52.4 nM under setting [3].

In the case of `Cc1nc2cnc(C3CCC(F)(F)C3)c(C#N)c2c(=O)n1CCOc1ccc(Cl)cc1-c1ccnc2c(C(=O)O)csc12` (stereo not drawn) [compound 1279], the IC50 under setting [2] is 8.91 nM.

Turning to `Cc1cc(-c2cc(Cl)ccc2OCCn2c(C)nc3c(C)nc(-c4cccc(F)c4)c(C#N)c3c2=O)c2scc(C(=O)O)c2n1` [compound 475], the IC50 runs as follows: under setting [1], under 50 nM; under setting [3], 17 nM.

For the molecule `Cc1cc(-c2cc(Cl)ccc2OCCn2c(C)nc3c(C)nc(C(F)(F)F)c(C#N)c3c2=O)c2scc(C(=O)O)c2n1` [compound 730], the IC50 by setting is: under setting [1], 50 to 1000 nM; under setting [3], 51 nM.

Consider `CCN(c1ncc2nc(C)n(CC#Cc3ccc(Cl)cc3-c3ccnc4c(C(=O)NS(=O)(=O)c5cccnc5)csc34)c(=O)c2c1C#N)C1CCN(C2COC2)CC1` [compound 1741], for which the IC50 under setting [2] is 11 nM.

For the molecule `Cc1cc(-c2cc(Cl)ccc2OCCn2c(C)nc3cc(C(F)(F)F)c(-c4cnccc4F)c(C#N)c3c2=O)c2scc(C(=O)O)c2n1` [compound 343], the IC50 is under 50 nM under setting [1] and 41.8 nM under setting [3].

Take `Cc1nc2cnc(N3CCN(C4(C)CC(F)(F)C4)CC3)c(C#N)c2c(=O)n1CCOc1ccc(Cl)cc1-c1ccnc2c(C(=O)O)csc12` [compound 1641]: the IC50 under setting [2] was 18.9 nM.

Regarding `Cc1nc2cnc(N(C)C3CCN(CC4(C(F)(F)F)CCO4)CC3)c(C#N)c2c(=O)n1CC#Cc1ccc(Cl)cc1-c1ccnc2c(C(=O)O)csc12` (stereo not drawn) [compound 1717], the IC50 under setting [2] was 13.4 nM.

On to `C#Cc1c(C(=O)O)cccc1-c1cc(Cl)ccc1OCCn1c(C)nc2cc(C(F)(F)F)cc(C#N)c2c1=O` [compound 156], for which the IC50 under setting [1] is under 50 nM and the IC50 under setting [3] is 4.2 nM.

Turning to `Cc1cc(-c2cc(Cl)ccc2OCCn2c(C)nc3cc(C(F)(F)F)c(-c4cccnc4)c(C#N)c3c2=O)c2scc(C(=O)O)c2n1` [compound 630], the IC50 runs as follows: under setting [1], 50 to 1000 nM; under setting [3], 50.2 nM.

In the case of `COc1cc(-c2cc(Cl)ccc2OCCn2c(C)nc3cc(C(F)(F)F)cc(C#N)c3c2=O)c2scc(C(=O)O)c2n1` [compound 329], the IC50 by setting is: under setting [1], under 50 nM; under setting [3], 46.4 nM.

With `Cc1nc2cnc(N3CCN(CC(F)C(F)(F)F)CC3)c(C#N)c2c(=O)n1CCOc1ccc(Cl)cc1-c1ccnc2c(C(=O)O)csc12` (stereo not drawn) [compound 1358], the IC50 under setting [2] is 18.3 nM.

`Cc1nc2cnc(N(C)[C@H]3[C@@H]4CN(CC(F)F)C[C@@H]43)c(C#N)c2c(=O)n1CC#Cc1ccc(Cl)cc1-c1ccnc2c(C(=O)O)csc12` [compound 1403]: the IC50 under setting [2] is 8.76 nM.

Regarding `Cc1c(O)c2cc(C(F)(F)F)cc(C#N)c2c(=O)n1CCOc1ccc(Cl)cc1-c1ccnc2c(C(=O)O)csc12` [compound 310], the IC50 under setting [1] lay in the range of 50 to 1000 nM and the IC50 under setting [3] is 97.7 nM.

`CONC(=O)c1csc2c(-c3cc(Cl)ccc3OCCn3c(C)nc4cc(F)c(F)c(C#N)c4c3=O)ccnc12` [compound 308]: the IC50 is 50 to 1000 nM under setting [1] and 811 nM under setting [3].

For the molecule `Cc1cc(-c2cc(Cl)ccc2OCCn2c(C)nc3cc(C(F)(F)F)c(-c4ccns4)c(C#N)c3c2=O)c2scc(C(=O)O)c2n1` [compound 348], the IC50 runs as follows: under setting [1], under 50 nM; under setting [3], 15.4 nM.

Turning to `Cc1cc(-c2cc(Cl)ccc2OCCn2c(C)nc3cc(Cl)c(N4CC(S(C)(=O)=O)C4)c(C#N)c3c2=O)c2scc(C(=O)O)c2n1` [compound 702], the IC50 reads like this: under setting [1], under 50 nM; under setting [3], 12.7 nM.

In the case of `Cc1ccc(-c2cc(Cl)ccc2OCCn2c(C)nc3cnc(-c4ccncc4)c(C#N)c3c2=O)c2scc(C(=O)O)c12` [compound 762], the IC50 by setting is: under setting [1], under 50 nM; under setting [3], 33.7 nM.

In the case of `O=C(O)c1cccc(-c2cc(Cl)ccc2OCCc2cccc3nc[nH]c(=O)c23)c1` [compound 170], the IC50 is, setting by setting: under setting [1], 50 to 1000 nM; under setting [3], 845 nM.
